{
  "source": "patent US10464957B2",
  "about": "“Oxidized lipids and methods of use thereof” (Vascular Biogenics Ltd., priority 2014, dated 2019)",
  "key": {"[1]": {"system": "LPS (TLR4)-stimulated human monocytes (primary CD14+)", "assay": "IL-12/23p40 ELISA, LPS (TLR4)-stimulated monocytes", "format": "cell-based", "details": "1 hour pretreatment, 24 hour 100 ng/ml LPS, ELISA of supernatant", "method": "(§1) Human monocytes were obtained as described in Example 9 and FIG. 9A-9B. Human monocytes were seeded (10^6/ml) and pretreated for 1 hour with VB-201, VB-701 or VB-702, followed by 24 hour activation with 100 ng/ml LPS from Escherichia coli strain 055:B5 (Sigma, Israel) (FIG. 9A) or 300 ng/ml Pam3CSK4 (InvivoGen, San Diego, Calif., USA) (FIG. 9B) to induce cytokine production. IL-12/23p40 concentration in the supernatant was then measured by ELISA (R&D systems, Cat. No. DY1240). Cells activated with solvent (0.5% ethanol in PBS) were used as a control."}, "[2]": {"system": "PGN (TLR2)-induced signaling in human monocytes (THP-1 cell line)", "assay": "PGN (TLR2)-induced signaling, western blot", "format": "cell-based", "details": "20 min pretreatment, 20 μg/ml PGN for 15 minutes", "method": "The monocytic THP-1 cell line was purchased from the American Type Tissue Culture Collection (ATCC Cat. No. TIB-202). Cells (10^6/ml) were pretreated for 20 min with VB-201 or VB-701 at the doses indicated in FIG. 3, or with solvent, followed by activation with 20 μg/ml peptidoglycan (PGN) (InvivoGen, San Diego, Calif.) for 15 minutes, or were untreated (“Unt”). Cells were washed and resuspended in lysis buffer containing 1:100 dithiothreitol (DTT), phosphatase and protease inhibitors (Thermo Scientific). Samples were loaded onto a precast Criterion TGX gel (Bio-Rad, Hemel Hempstead, UK) and transferred onto nitrocellulose membrane. Blots were blocked with 5% milk or BSA in Tris buffered saline and Tween 20 (TBST) for 1 h, followed by incubation with primary and secondary antibodies. Membranes were developed using an ECL kit (Thermo Scientific). The following antibodies were used for immunoblotting:\n(§2) Primary antibodies: p-p38 (Cat. No. 4511; 1:1000) and p-IKK (Cat. No. 2697; 1:1000) were from Cell Signaling Technology (Danvers, Mass., USA). p-ERK1/2 (Cat. No. M8159; 1:10000) was purchased from Sigma (Israel). αTubulin served as a loading control.\n(§3) Secondary antibodies: HRP donkey anti-rabbit (1:5000) and HRP goat anti-mouse (1:3000) were from Jackson ImmunoResearch (West Grove, Pa., USA). HRP donkey anti-goat (1:5000) was from Santa Cruz Biotechnology."}, "[3]": {"system": "LPS (TLR4)-induced signaling in human monocytes (primary CD14+)", "assay": "LPS (TLR4)-induced signaling, western blot", "format": "cell-based", "details": "western blot; for formation of p-IKK, p-ERK and p-p38 induced by LPS: 20 min pretreatment, 15 min activation with 100 ng/ml LPS", "method": "(§4) Venous blood samples were obtained from healthy male donors in compliance with the Institutional Review Board at the Sheba Medical Center, Ramat Gan, Israel. PBMCs were isolated on Ficoll-Paque PLUS (GE Healthcare, Uppsala, Sweden) using 50 ml Leucosep tubes (Greiner Bio-One, Frickenhausen, Germany). Cells were washed in PBS (Kibbutz Beit Haemek, Israel) and incubated at 4° C. for 15 minutes in a buffer containing PBS and 0.5% bovine serum albumin (BSA) with human CD14 microbeads (Miltenyi Biotec, Bergisch Gladbach, Germany).\n(§5) Cells (10^6/ml) were pretreated for 20 min with VB-201 (1-hexadecyl-2-(4′-carboxy)butyl-glycero-3-phosphocholine or 1-hexadecyl-2-(4′-carboxybutyl)-glycerol-3-phosphocholine) or VB-701 at the doses indicated in FIG. 2, or with solvent (Sol), followed by 15 min activation with 100 ng/ml lipopolysaccharide (LPS) or were untreated (Unt). Cells were washed and resuspended in lysis buffer containing 1:100 dithiothreitol (DTT), phosphatase and protease inhibitors (Thermo Scientific). Samples were loaded onto a precast Criterion TGX gel (Bio-Rad, Hemel Hempstead, UK) and transferred onto nitrocellulose membrane. Blots were blocked with 5% milk or BSA in Tris buffered saline and Tween 20 (TBST) for 1 h, followed by incubation with primary and secondary antibodies. Membranes were developed using an ECL kit (Thermo Scientific). The following antibodies were used for immunoblotting:\nPrimary antibodies: p-p38 (Cat. No. 4511; 1:1000) and p-IKK (Cat. No. 2697; 1:1000) were from Cell Signaling Technology (Danvers, Mass., USA). p-ERK1/2 (Cat. No. M8159; 1:10000) was purchased from Sigma (Israel). αTubulin (Tub) served as a loading control.\nas §3\nas §5, with “VB-201” for “VB-201 (1-hexadecyl-2-(4′-carboxy)butyl-glycero-3-phosphocholine”, “VB-703” for “1-hexadecyl-2-(4′-carboxybutyl)-glycerol-3-phosphocholine) or VB-701 at the doses indicated in FIG. 2, or with solvent (Sol),”, “LPS.” for “lipopolysaccharide (LPS) or were untreated (Unt).”\nas §2, with “Heat shock protein (HSP) 90 (Cat. No. 13119; 1:500) was from Santa Cruz Biotechnology (Santa Cruz, Calif., USA).” for “αTubulin served as a loading control.”"}, "[4]": {"system": "human monocytes (primary CD14+)", "assay": "Chemokine-induced cell migration trans-well assay", "format": "cell-based", "details": "RANTES 100 ng/ml and MCP-1 50 ng/ml, 2-4 hours, FACS count", "method": "as §4\nCells (10^6/ml) were pretreated for 20 min with VB-201 or VB-701 at the doses indicated in FIG. 5, or with solvent (Sol).\nTo test for chemokine-induced cell migration, RANTES (100 ng/ml; Cat. No. 300-06, PeproTech, Israel) and MCP-1 (50 ng/ml; Cat. No. 300-04, PeproTech, Israel) were dissolved in RPMI-1640 medium supplemented with 0.5% fetal bovine serum (FBS) and placed at the lower chamber of QCM 24-well, […], migration assay plates (Corning-Costar, Corning, N.Y.). Cells (3×10^5) were seeded in the upper chamber and incubated for 2-4 hours. Subsequently, the number of cells which migrated to the lower compartment was determined by fluorescence-activated cell sorting (FACS)."}, "[5]": {"system": "MCP-1-induced signaling in human monocytes (THP-1 cell line)", "assay": "MCP-1-induced signaling, western blot", "format": "cell-based", "details": "20 min pretreatment, 50 ng/ml MCP1, THP-1", "method": "THP-1 cells (10^6/ml) were pretreated for 20 min with VB-201 or VB-701 at the doses indicated in FIG. 4, or with solvent, followed by activation with 50 ng/ml MCP1, or were untreated (“Unt”). Cells were washed and resuspended in lysis buffer containing 1:100 dithiothreitol (DTT), phosphatase and protease inhibitors (Thermo Scientific). Samples were loaded onto a precast Criterion TGX gel (Bio-Rad, Hemel Hempstead, UK) and transferred onto nitrocellulose membrane. Blots were blocked with 5% milk or BSA in Tris buffered saline and Tween 20 (TBST) for 1 h, followed by incubation with primary and secondary antibodies. Membranes were developed using an ECL kit (Thermo Scientific). The following antibodies were used for immunoblotting:\nPrimary antibodies: p-ERK1/2 (Cat. No. M8159; 1:10000) was purchased from Sigma (Israel). p-AKT (Cat. No. 4060; 1:1000) was purchased from Cell Signaling Technology (Danvers, Mass.). αTubulin served as a loading control and was purchased from Sigma (Israel).\nas §3"}, "[6]": {"system": "Pam3CSK4 (TLR2)-stimulated human monocytes (primary CD14+)", "assay": "IL-12/23p40 ELISA, Pam3CSK4 (TLR2)-stimulated monocytes", "format": "cell-based", "details": "1 hour pretreatment, 24 hour 300 ng/ml Pam3CSK4, ELISA of supernatant", "method": "as §1"}, "[7]": {"system": "RANTES-induced signaling in human monocytes (primary CD14+)", "assay": "RANTES-induced signaling, western blot", "format": "cell-based", "details": "RANTES 100 ng/ml for 15 minutes", "method": "as §5\nHuman monocytes were obtained, treated and analyzed by western blot as described in Example 9 and FIG. 7, except that cells were induced with RANTES (100 ng/ml; Cat. No. 300-06, PeproTech, Israel) for 15 minutes. […] Accordingly, VB-702 and VB-201 inhibit RANTES-induced signaling in human monocytes (primary CD14+)."}, "[8]": {"system": "human monocytes (THP-1 cell line)", "assay": "SDF1-induced cell migration trans-well assay", "format": "cell-based", "details": "5 μg/ml, 20 min pretreatment"}, "[9]": {"biological_target": "T1, TLR4 complex (Homo sapiens, UniProt O00206+Q9Y6Y9)", "T1 construct": "endogenous in cells; probably the human primary monocytes of b454", "T1 sequence (O00206 24-839)": "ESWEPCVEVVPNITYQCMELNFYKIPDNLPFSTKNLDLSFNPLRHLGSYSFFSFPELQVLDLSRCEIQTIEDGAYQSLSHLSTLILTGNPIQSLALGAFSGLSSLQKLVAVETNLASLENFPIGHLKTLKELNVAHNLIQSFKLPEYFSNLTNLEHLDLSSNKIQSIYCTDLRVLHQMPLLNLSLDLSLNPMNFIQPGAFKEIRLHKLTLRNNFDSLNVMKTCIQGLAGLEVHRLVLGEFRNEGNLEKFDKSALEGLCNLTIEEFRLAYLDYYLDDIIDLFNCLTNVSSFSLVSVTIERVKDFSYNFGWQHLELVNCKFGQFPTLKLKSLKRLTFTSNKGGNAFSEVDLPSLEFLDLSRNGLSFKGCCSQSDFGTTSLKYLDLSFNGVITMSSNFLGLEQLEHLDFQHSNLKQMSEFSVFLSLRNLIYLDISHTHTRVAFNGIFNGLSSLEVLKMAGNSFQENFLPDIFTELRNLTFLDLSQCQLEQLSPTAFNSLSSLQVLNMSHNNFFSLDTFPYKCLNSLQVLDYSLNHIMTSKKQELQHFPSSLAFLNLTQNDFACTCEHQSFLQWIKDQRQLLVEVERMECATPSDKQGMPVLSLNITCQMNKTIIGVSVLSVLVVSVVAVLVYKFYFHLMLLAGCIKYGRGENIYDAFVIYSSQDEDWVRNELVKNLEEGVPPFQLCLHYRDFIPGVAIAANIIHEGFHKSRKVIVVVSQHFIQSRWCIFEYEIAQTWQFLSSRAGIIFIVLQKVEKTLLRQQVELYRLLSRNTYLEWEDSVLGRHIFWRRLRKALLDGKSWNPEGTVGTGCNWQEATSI", "T1 sequence (Q9Y6Y9 17-160 limits assumed)": "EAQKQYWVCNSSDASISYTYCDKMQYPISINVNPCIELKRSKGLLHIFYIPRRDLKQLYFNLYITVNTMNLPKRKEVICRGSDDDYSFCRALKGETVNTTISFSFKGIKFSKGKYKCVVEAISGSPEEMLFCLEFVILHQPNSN", "assay": "LPS binding inhibition assay (biotin-LPS, FACS)", "details": "biotin-LPS 100 ng/ml, FACS", "method": "To assess interference with lipopolysaccharide (LPS) binding, VB-201 or VB-703 were incubated for 20 min with cells (10^6/ml) after which 100 ng/ml of biotin-LPS (InvivoGen) was added for an additional 15 minutes, all at 4° C. Cells were washed, resuspended in FACS buffer and analyzed on a FACS-Calibur device."}},
  "data": [
    {"smiles": "CCCCCCCCCCCCCCCCOCC(COP(=O)([O-])OCC[n+]1ccccc1)OCCCCC(=O)O", "note": "(centres unmarked) [VB-701, 1-hexadecyl-2-(4′-carboxy)butyl-glycero-sn-3-phosphoric acid pyridiniumethyl ester]", "values": [
      {"measurement": "IL-12p40 levels, LPS (TLR4)-stimulated", "setting": "[1]", "value": "inhibit"},
      {"measurement": "formation of p-IKK, p-ERK and p-p38 induced by PGN", "setting": "[2]", "value": "inhibit"},
      {"measurement": "formation of p-IKK, p-ERK and p-p38 induced by LPS", "setting": "[3]", "value": "inhibit"},
      {"measurement": "chemokine-induced migration of human monocytes", "setting": "[4]", "value": "inhibit"},
      {"measurement": "formation of p-AKT and p-ERK induced by MCP1", "setting": "[5]", "value": "inhibit"},
      {"measurement": "IL-12p40 levels, Pam3CSK4 (TLR2)-stimulated", "setting": "[6]", "value": "inhibit"}
    ]},
    {"smiles": "CCCCCCCCCCCCCCCCCCCCOCC(COP(=O)([O-])OCC[n+]1ccccc1)OCCCCC(=O)O", "note": "(centres unmarked) [VB-702, 1-eicosanyl-2-(4′-carboxy)butyl-glycero-sn-3-phosphoric acid pyridiniumethyl ester]", "values": [
      {"measurement": "IL-12p40 levels, LPS (TLR4)-stimulated", "setting": "[1]", "value": "inhibit"},
      {"measurement": "formation of p-IKK, p-ERK and p-p38 induced by LPS", "setting": "[3]", "value": "inhibit"},
      {"measurement": "formation of p-ERK induced by RANTES", "setting": "[7]", "value": "inhibit"},
      {"measurement": "chemokine-induced migration of human monocytes", "setting": "[4]", "value": "inhibit"},
      {"measurement": "IL-12p40 levels, Pam3CSK4 (TLR2)-stimulated", "setting": "[6]", "value": "inhibit"}
    ]},
    {"smiles": "CCCCCCCCCCC(CCCCCCCC)COCC(COP(=O)([O-])OCC[n+]1ccccc1)OCCCCC(=O)OC", "note": "(centres unmarked) [VB-705, 1-(2′-octyl)dodecyl-2-(4′-carboxymethyl)butyl-glycero-sn-3-phosphoric acid pyridiniumethyl ester]", "values": [
      {"measurement": "SDF1-induced migration of human monocytes (THP-1 cell line)", "setting": "[8]", "value": "does not inhibit"},
      {"measurement": "formation of p-ERK and p-AKT induced by LPS", "setting": "[3]; LPS activation", "value": "inhibit"},
      {"measurement": "LPS-biotin binding to human monocytes (primary CD14+)", "setting": "[9]", "value": "inhibits"}
    ]}
  ]
}
